Tests used:
[1] = test system: E. coli W3110; assay: Evaluation of R9-conjugated macrocyclic peptides against E. coli W3110 (survival, CFU); type: cell-based, Escherichia coli; conditions: E. coli W3110 logarithmic-phase, 5 μM peptide, 15 min treatment (Fig. 4B)
Experimental: the samples were centrifuged at 1000 rpm for 10 min，and take pictures of the pellet after centrifugation. Then, the supernatant from each sample was absorbed into the 96-well plate to ensure that there could be no air bubbles in each hole. The absorbance of the supernatant at the wavelength of 545 nm was measured by microplate reader, and the percentage of hemolysis of each […]
Percentage of hemolysis = 100%OD-OD×
Evaluation of R9-conjugated macrocyclic peptides against Gram-negative pathogens Remove the previously preserved E. coli W3110 cells from the -80 °C refrigerator, scrape a little, inoculate it into 1 mL LB liquid medium, and culture overnight in 37 °C shaker. The strain was inoculated into fresh LB liquid medium according to the inoculation ratio of 1:100 and incubated at 37 ℃ until the OD600 reached about 0.47~0.53. First, 100 μL E. coli W3110 cells was taken, then centrifuged for 2 minutes at 13000 rpm, then the supernatant was absorbed and discarded, and then the cells were resuspended with 100 μL PBS solution, followed by 13000 rpm centrifugation for two minutes. Various fluorinated macrocyclic peptides conjugated with R9 were dissolved in DMSO and then diluted to the required concentration. […] Finally, the plate was scanned and counted. […]

[2] = test system: E. coli W3110; assay: Protein leakage assay; type: cell-based, Escherichia coli; conditions: E. coli W3110, 5 μM peptide, 15 min, pellet analysed by SDS-PAGE, compared to R9-treated sample (Fig. S10)
Experimental: Thaw the previously preserved E. coli W3110 cells from the -80 °C freezer. Scrape a small amount and inoculate it into 1 mL of LB liquid medium. Incubate overnight in a 37°C shaker. Next day, transfer the culture to fresh LB liquid medium at a 1:100 inoculation ratio and incubate at 37 °C until the OD600 reaches approximately 0.47 to 0.53. Collect 300 μL of the E. coli W3110 cells and centrifuge for 2 min at 13,000 rpm, discarding the supernatant afterward. Resuspend the untreated group in 300 μL of PBS, and the peptide treatment group in 297 μL of ddH2O. Add 3 μL of 0.5 mM different peptides to the treatment group, mix well, and allow to react for 15 min. After the treatment, resuspend all samples in 15 μL of 6×SDS loading buffer and 15 μL of 10% SDS. All samples were heated at 99.9°C for 15 min, followed by 10% SDS-PAGE analysis and staining with Coomassie brilliant blue R250. […]
Incubate overnight in a 37°C shaker. […]

Row | Substance | eradication of E. coli bacteria [1] | cellular protein leakage [2]
1 | Ac-(4-F-DPhe)IWHKSLT(4-F-DPhe)NYLHTCGS(Acp)RRRRRRRRR-NH2 (sidechain bridge or staple) [BAM-f2-R9, BAM-f2 conjugated with cell-penetrating peptide R9] | over 99.9% | partial cellular protein leakage
2 | Ac-(4-F-DPhe)KHFIY(4-F-β-Phe)YRSPICGS(Acp)RRRRRRRRR-NH2 (sidechain bridge or staple) [BAM-β3-R9, BAM-β3 conjugated with cell-penetrating peptide R9] | over 99.9% | partial cellular protein leakage
